≈ marks a conversion by molar mass, not a printed value.
How the values were obtained:
C. albicans SC5314 = assay: MIC assay, fungus (CLSI broth microdilution); format: cell-based; conditions: Candida albicans, RPMI 1640, 35 °C, 48 h, 0.5 x 10^3 to 2.5 x 10^3 CFU/mL, triplicate, three independent assays, read-out: Minimum Inhibitory Concentrations, C. albicans SC5314 (reference strain)
S. aureus ATCC 25913 = assay: MIC assay, bacteria (CLSI broth microdilution); format: cell-based; conditions: Staphylococcus aureus, ATCC25913, Gram positive, CA-MHB, 37 °C with shaking, 18 h, ~5 x10^5 CFU/mL, triplicate, three biological replicates, read-out: Minimum Inhibitory Concentrations, S. aureus ATCC 25913
P. aeruginosa SVB-B9 = assay: MIC assay, bacteria (CLSI broth microdilution); format: cell-based, Pseudomonas aeruginosa; conditions: Gram negative, CA-MHB, 37 °C with shaking, 18 h, ~5 x10^5 CFU/mL, triplicate, three biological replicates
E. coli ATCC 25922 = assay: MIC assay, bacteria (CLSI broth microdilution); format: cell-based, Escherichia coli; conditions: Gram negative, CA-MHB, 37 °C with shaking, 18 h, ~5 x10^5 CFU/mL, triplicate, three biological replicates

## C[C@@H]1[C@H](O)[C@@H](C)/C=C/C=C/C=C/C=C/C=C/C=C/C=C/[C@H](O[C@@H]2O[C@H](C)[C@@H](O)[C@H](N)[C@@H]2O)C[C@@H]2O[C@](O)(C[C@@H](O)C[C@@H](O)[C@H](O)CC[C@@H](O)C[C@@H](O)CC(=O)O[C@H]1C)C[C@H](O)[C@H]2C(=O)O [AMB, amphotericin B]
C. albicans SC5314
  MIC: 1 µM (≈ 0.924 µg/mL)

## CC1(C)S[C@@H]2[C@H](NC(=O)[C@H](N)c3ccc(O)cc3)C(=O)N2[C@H]1C(=O)O [AMX, amoxicillin]
S. aureus ATCC 25913
  MIC: 2 µM (≈ 0.731 µg/mL)

## polymyxin B [PMB]
P. aeruginosa SVB-B9
  Minimum Inhibitory Concentrations, P. aeruginosa SVB-B9 (type strain): 0.125 µM
E. coli ATCC 25922
  Minimum Inhibitory Concentrations, E. coli ATCC 25922: 0.125 µM

— article PMC11273936, “The Antimicrobial Peptide Capitellacin: Chemical Synthesis of Analogues to Probe the Role of Disulphide Bridges and Their Replacement with Vinyl Sulphides” (Antibiotics, 2024)
